One series relates to U251. Briefly: 39-cancer cell panel assay: U251. Type of series: cell-based. The note with it: Homo sapiens, U-251, CNS.
The nature of series [1]: Cytotoxicity assay (Cell Counting Kit-8 / WST-8) on DLD-1 cells. The note with it: human, DLD-1 colorectal adenocarcinoma cells; DLD-1, original medium, normal oxygen, 100 μM, 24 h. Type of series: cell-based, human. For orientation: Tetrazolium dyes change colour on reduction, which living cells bring about.
The subject of the next series is DLD-1 cells. The description is as above. It is filed as cell-based, human. The conditions noted are these: for IC50: Homo sapiens.
The next series relates to HBC-4. Briefly: 39-cancer cell panel assay: HBC-4. The conditions noted are these: Homo sapiens, HBC4, Br. Type of series: cell-based.
The test system of a further series is OVCAR-8. Briefly: 39-cancer cell panel assay: OVCAR-8. It is filed as cell-based. The conditions noted are these: Homo sapiens, Ov.
The test system of a further series is NCI-H226. The series is described as follows: 39-cancer cell panel assay: NCI-H226. It is filed as cell-based. The note with it: Homo sapiens, Lu.
The next series has as its system KM-12. The series is described as follows: 39-cancer cell panel assay: KM-12. The conditions noted are these: Co. Type of series: cell-based, human.
The test system of a further series is DMS114. Briefly: 39-cancer cell panel assay: DMS114. It is filed as cell-based. The note with it: Homo sapiens, DMS-114, Lu.
Another series concerns SK-OV-3. The series is described as follows: 39-cancer cell panel assay: SK-OV-3. Type of series: cell-based. The conditions noted are these: Homo sapiens.
Where [2] appears, read: read-out: IC50 (μM) DLD-1 (24 h) Hypoxia nutrient (-), DLD-1, 24 h, hypoxia (1% oxygen), nutrient (-).
Setting [3] is: read-out: IC50 (μM) DLD-1 (24 h) Normoxia nutrient (+), DLD-1, 24 h, normoxia, nutrient (+).
[4] abbreviates: DLD-1, 48 h, hypoxia (1% oxygen), nutrient (-), read-out: IC50 (μM) DLD-1 (48 h) Hypoxia nutrient (-).
[5] abbreviates: DLD-1, 48 h, normoxia, nutrient (+), read-out: IC50 (μM) DLD-1 (48 h) Normoxia nutrient (+).

Read-outs that look alike come from different tables or passages of the source.

For the compound `C/C(=C\Cc1c(O)c(Cl)c(C)c(C=O)c1O)CC/C=C(\C)[C@@H]1CC(=O)C(C)(C)O1` [Compound 1, ascofuranone], the GI50 (in general, the concentration giving 50% growth inhibition) in the series on U251 amounted to 1.5 µM; in the series with HBC-4, 9.1 µM; in the series on OVCAR-8, 9.5 µM; in the series with NCI-H226, 15 µM; in the series with DMS114 it was 19 µM; with SK-OV-3 it was 13 µM. For the same compound, the viability – broadly, the share of living cells, or the viability signal relative to a control – at 24 h, 100 µM in [1] is around 80%. The IC50 (as a rule, the point on the concentration scale where inhibition reaches its midpoint) in the series with DLD-1 cells (setting [2]) was 1.2 ± 0.79 µM; in the series on DLD-1 cells (setting [3]), above 100 µM; in the series with DLD-1 cells (setting [4]), 0.24 ± 0.057 µM; in the series with DLD-1 cells (setting [5]) it was above 100 µM. In addition, the “GI50 (μM) KM-12” value in the series with KM-12 was 9.3 µM.
`CC(C)=CCC/C(C)=C/CC/C(C)=C/Cc1c(O)c(Cl)c(C)c(C=O)c1O` [Compound 8]: the GI50 in the series on U251 was found to be 0.43 µM; with HBC-4, 2.2 µM; with OVCAR-8 it was 0.97 µM; in the series with NCI-H226, 10 µM; in the series with DMS114, 2.5 µM; in the series on SK-OV-3 it was 37 µM. Besides, the “IC50 fold lower than 1” value in the series on DLD-1 cells (DLD-1, 24 h, hypoxia nutrient-deprived, versus compound 1) is recorded as 20 fold. Besides, the IC50 in the series on DLD-1 cells (setting [2]) amounted to 0.066 ± 0.042 µM; in the series with DLD-1 cells (setting [3]), 81 ± 24 µM; in the series on DLD-1 cells (setting [4]), 0.024 ± 0.003 µM; in the series with DLD-1 cells (setting [5]), 38 ± 3.3 µM. The “selectivity ratio, microenvironment versus normal culture condition” value in the series on DLD-1 cells (hypoxia and nutrient-deprived versus normal culture) is given as “over 1000 fold”. In addition, the “GI50 (μM) KM-12” value with KM-12 worked out at 2.0 µM.

Source of the values: publication PMC6131557, “Selective Cytotoxicity of Dihydroorotate Dehydrogenase Inhibitors to Human Cancer Cells Under Hypoxia and Nutrient-Deprived Conditions” (Frontiers in Pharmacology, 2018).
